Test results published in US20220257518A1, “LONG-LASTING FORMULATION CONTAINING RIVASTIGMINE, AND METHOD FOR PREPARING SAME” (priority 2019, published 2022).

Assay: Rivastigmine and pamoate contents in rivastigmine pamoate (HPLC)
Format: physicochemical
Details: HPLC 210 nm
Protocol: In order to measure the contents of rivastigmine and pamoate of rivastigmine pamoate prepared in Example 1, the sample 10 mg was completely dissolved with dimethyl sulfoxide, and then was diluted into a mobile phase. The diluted solution 20 uL was injected to HPLC and was measured at a detection wavelength 210 nm. The column used in the present measurement was Inertsil ODS-3, 5 um, 4.6×250 mm, and the mobile phase was used by mixing phosphate buffer solution (pH 6.0) and acetonitrile at a ratio of 65:35 (v/v).

Molecule | Pamoate content of rivastigmine pamoate [% by weight] | Rivastigmine content of rivastigmine pamoate [% by weight]
rivastigmine pamoate [Sample 1-1] | 40.49 | 57.47
rivastigmine pamoate [Sample 1-2] | 40.47 | 52.45
rivastigmine pamoate [Sample 1-3] | 53.79 | 41.10
rivastigmine pamoate [Sample 1-4] | 68.93 | 32.19

Assay: not given
Details: cited from earlier work

Molecule | Solubility in water [µg/mL]
CCN(C)C(=O)Oc1cccc([C@H](C)N(C)C)c1 [rivastigmine freebase, rivastigmine] | ≤ 5000
